Read-outs that look alike come from different tables or passages of the source. Bridge positions count the residues as written; N and C are the ends. Peptide text beside a SMILES is read from it.
Assays:
[1] = test system: respiratory tract infection by a virus; assay: Case studies: oral AOD9604 in subjects with flu-like symptoms; assay type: in vivo, human
Source text: The subject is a person who presented with flu-like symptoms. The subject reported to have been free of flu-like symptoms over the past 8 years.
The subject developed a very sore throat. On awakening the next day, the sore throat was more severe and their nose was running (rhinorrhea) and becoming worse throughout the day. Other symptoms that developed during the day included: • a persistent deep phlegmy cough; • high temperature; • body sweats; • chills; • muscle soreness; and • fatigue.
Later that evening, the subject developed a loss of appetite, and an exacerbation of chills, body sweats, rhinorrhoea and persistent coughing. At around 8 pm that evening, the subject was administered ˜1 mg AOD9604 (SEQ ID NO:2), orally.
The subject is a person who in the afternoon presented with the flu, with symptoms including a persistent deep phlegmy cough, high temperature, body sweats, chills, muscle soreness and fatigue. The subject was administered ˜1 mg AOD9604 (SEQ ID NO:2), orally. The subject recalls sleeping well that evening.

[2] = test system: HKx31 (H3N2) IAV; parameters: species or system C57BL/6 mice; conditions: mouse, in vivo; for IAV-associated lethality: 5 mg/kg
[3] = test system: HKx31 (H3N2) IAV; assay: Titres of infectious virus in lung homogenates by standard plaque assay on MDCK cells; assay type: in vivo, C57BL/6 mice; conditions: day 4 post-infection; for reduction in levels of infectious virus in lung tissues: daily therapeutic 20 mg/kg intranasal from day 1
Procedure: (§1) For virus infection studies, groups of 8 male C57BL/6 mice were randomized. […] Bronchoalveolar lavage (BAL) fluid was immediately obtained following euthanisation by flushing the lungs three times with 1 mL of PBS. Lungs were then removed and frozen immediately in liquid nitrogen. Titres of infectious virus in lung homogenates were determined by standard plaque assay on MDCK cells.

[4] = test system: IL-6, MCP-1/CCL2, IFNγ, IL-10, IL-12p70, TNFα, IFNα, IFNβ, IFN λ2/3; assay: Quantification of cytokines in mouse BAL fluid and sera (CBA, ELISA); assay type: in vivo, C57BL/6 mice; conditions: day 4 post-infection
Procedure: as §1
To detect cytokines, BAL fluid was collected and stored at −80° C. Levels of IL-6, MCP-1/CCL2, IFNγ, IL-10, IL-12p70, and TNFα proteins were determined by cytokine bead array (CBA) using the mouse inflammation kit (Becton Dickinson). Levels of mouse IFNα were determined by sandwich ELISA using mouse monoclonal clone F18 (Thermo Scientific) and rabbit polyclonal antibodies (PBL) (Thomas et al., 2014). Levels of mouse IFNβ were determined by sandwich ELISA using mouse monoclonal clone 7F-D3 (Abcam) and rabbit polyclonal antibodies (PBL) (Thomas et al., 2014). Mouse IFN λ2/3 was quantified by ELISA (R&D Systems).

[5] = test system: BAL cells; assay type: in vivo, C57BL/6 mice; conditions: day 4 post-infection
[6] = test system: HKx31 (H3N2) IAV; assay: Assessment of lung oedema and vascular leakage; parameters: species or system C57BL/6 mice; conditions: mouse, in vivo
[7] = test system: HKx31; assay: HKx31 infection of human PBECs, infectious virus in cell supernatants; assay type: cell-based; conditions: 24 hours following HKx31 infection
[8] = test system: SARS-CoV-2; assay: SARS-CoV-2 infection of Vero cells, cytopathic effect inhibition assay; assay type: cell-based
[9] = 20 mg/kg intranasal every 48 h
[10] = cited from earlier work
[11] = daily therapeutic 20 mg/kg intranasal from day 1
[12] = prophylactic 20 mg/kg intranasal, every 48 h

With `CC[C@H](C)[C@H](NC(=O)[C@H](CCCNC(=N)N)NC(=O)[C@H](CC(C)C)NC(=O)[C@@H](N)Cc1ccc(O)cc1)C(=O)N[C@H](C(=O)N[C@@H](CCC(N)=O)C(=O)N[C@H]1CSSC[C@@H](C(=O)NCC(=O)N[C@@H](Cc2ccccc2)C(=O)O)NC(=O)[C@H](CO)NC(=O)CNC(=O)[C@H](CCC(=O)O)NC(=O)[C@H](C(C)C)NC(=O)[C@H](CO)NC(=O)[C@H](CCCNC(=N)N)NC1=O)C(C)C` [LAT8881, H-YLRIVQCRSVEGSCGF-OH] (H-YLRIVQCRSVEGSCGF-OH; disulfide 7-14) the “remaining symptoms on waking about 7 hours later” value ([1]; Case study 1: ~1 mg orally) was “the only remaining symptoms were a runny nose and a slight cough”, the “symptoms of the flu by the morning” value ([1]; Case study 2: ~1 mg orally) was “all symptoms of the flu had disappeared except for a slight runny nose and a dry cough” and the “time until reported symptom-free” value ([1]; Case study 2: ~1 mg orally, after the morning following dosing) was “around 24 hours”. The “alleviation of symptoms of respiratory tract infection (conclusion of case studies)” value ([1]; ~1 mg orally, two case studies) was “capable of alleviating the symptoms of respiratory tract infection by a virus”, the “clinical signs of disease (weight loss, limited mobility, laboured breathing)” value [2] was “reduced clinical signs of disease including weight loss” and the “delay of IAV-associated lethality” value [2] was 48 to 72 h. The “onset of clinical signs of severe disease (weight loss, limited mobility, laboured breathing)” value [2] was “delayed the onset of clinical signs of severe disease”, the “survival of mice (from 0% in PBS controls)” value [2] was “approximately 30%” and the IAV-associated lethality [2] was “delayed IAV-associated lethality”. For the same compound, the “reduction in levels of infectious virus in lung tissues” value [3] was 1.5 fold, the “reduction in infectious viral loads in the lung” value ([3]; prophylactic: 20 mg/kg intranasal 24 h prior to infection, then every 48 h) was 1.6 fold and the “IL-6 in the BAL fluid” value [4, 11] was “significantly reduced”. The “TNFα levels in BAL fluid” value [4, 11] was “less profound reduction”, the “concentration of IFN λ2/3 in BAL fluid” value [4, 11] was “not significantly different” and the “concentration of IFNα in BAL fluid” value [4, 11] was “not significantly different”. The “concentration of IFNβ in BAL fluid” value [4, 11] was “not significantly different”, the “concentration of IL-10 in BAL fluid” value [4, 11] was “not significantly different” and the “concentration of IL-12p70 in BAL fluid” value [4, 11] was “not significantly different”. For the same compound, the “levels of CCL2 in BAL fluid” value [4, 11] was “limited levels of CCL2”, the “reduction of IFNγ in BAL fluid” value [4, 11] was 2 fold and the “reduction of IL-6 in the serum” value [4, 11] was “approximately 1.6 fold”. For the same compound, the “concentration of CCL2 in BAL fluid” value [4, 12] was “comparable with PBS-treated IAV infected controls”, the “concentration of IL-6 in BAL fluid” value [4, 12] was “comparable with PBS-treated IAV infected controls” and the “concentration of IL-10 in BAL fluid” value [4, 12] was “comparable with PBS-treated IAV infected controls”. For the same compound, the “concentration of IL-12p70 in BAL fluid” value [4, 12] was “comparable with PBS-treated IAV infected controls”, the “concentration of TNFα in BAL fluid” value [4, 12] was “comparable with PBS-treated IAV infected controls” and the “levels of IFN λ2/3” value [4, 12] was “no significant differences”. For the same compound, the “levels of IFNα” value [4, 12] was “no significant differences”, the “levels of IFNβ” value [4, 12] was “no significant differences” and the “reduction of IFNγ in BAL fluid” value [4, 12] was 2 fold. For the same compound, the “reduction of IL-6 in the serum” value [4, 12] was 1.5 fold, the “inflammatory Ly6C+ macrophages in the airways” value (“inflammatory Ly6C+ macrophages” for short) [5, 11] was “significantly fewer” and the “neutrophils in BAL” value [5, 11] was “significantly fewer”. The “total BAL cellularity” value [5, 11] was “significantly reduced”, the “total numbers of dendritic cells” value [5, 11] was “comparable to PBS-treated infected controls” and the “dendritic cells in the airways” value [5, 12] was “no significant numerical difference”. The “inflammatory Ly6C+ macrophages” value [5, 12] was “no significant numerical difference”, the “leukocyte cell death (Annexin V and PI staining of BAL cells)” value [5, 12] was “no significant differences” and the “macrophages in BAL” value [5, 12] was “significantly fewer”. The “neutrophils in BAL” value [5, 12] was “significantly fewer”, the “total BAL cellularity” value [5, 12] was “significantly reduced” and the “BAL fluid protein concentrations (vascular leakage)” value [6] was “significantly reduced”. The lung wet-to-dry ratios [6] was “no significant differences”, the “levels of infectious virus in cell supernatants” value [7] was “no significant impact” and the “SARS-CoV-2 infection of Vero cells (cytopathic effect inhibition)” value [8] was “did not alter SARS-CoV-2 infection of Vero cells”. For the same compound, the “weight loss or clinical signs of disease in uninfected mice” value [9] was “did not result in weight loss or any clinical signs of disease”.
With “H-CRSVEGSCGF-OH (cysteine pairing not given here; listed as Homo sapiens) [LAT9991F]” the IAV-associated lethality [2] was “delayed IAV-associated lethality”, the “reduction in levels of infectious virus in lung tissues” value [3] was 2.4 fold and the “TNFα levels in BAL fluid” value [4, 11] was “less profound reduction”. For the same compound, the “concentration of IFN λ2/3 in BAL fluid” value [4, 11] was “not significantly different”, the “concentration of IFNα in BAL fluid” value [4, 11] was “not significantly different” and the “concentration of IFNβ in BAL fluid” value [4, 11] was “not significantly different”. The “concentration of IL-10 in BAL fluid” value [4, 11] was “not significantly different”, the “concentration of IL-12p70 in BAL fluid” value [4, 11] was “not significantly different” and the “reduction of IFNγ in BAL fluid” value [4, 11] was 2.3 fold. The “reduction of IL-6 in the serum” value [4, 11] was “approximately 1.6 fold”, the “inflammatory Ly6C+ macrophages” value [5, 11] was “significantly fewer” and the “neutrophils in BAL” value [5, 11] was “significantly fewer”. The “numbers of macrophages in BAL” value [5, 11] was “reduced numbers of macrophages”, the “total BAL cellularity” value [5, 11] was “significantly reduced” and the “total numbers of dendritic cells” value [5, 11] was “comparable to PBS-treated infected controls”. For the same compound, the lung wet-to-dry ratios [6] was “no significant differences” and the “stability as metabolite in human serum” value [10] was “known stable metabolite of LAT8881 in human serum”.
